Source: US8853238B2, “Fused heterocyclic compound and use thereof for pest control” (Sumitomo Chemical Company, Limited, priority 2010, dated 2014)

Experiments:
Assay type in all cases: in vivo
[1] = tested on: Adoxophyes orana fasciata; assay: Test Example 8: spray on apple tree, release of Adoxophyes orana fasciata; conditions: in Malus domestica, 168 h; 500 ppm active ingredient; apple tree sprayed with 20 mL/cup; 60 first-instar Adoxophyes orana fasciata; after 7 days; read-out: Death rate
Experimental: On the other hand, an apple tree was planted in a plastic cup, and grown until the seventh-eighth leaf was spread. The apple tree was sprayed with 20 mL/cup of each of the test spray solution. After the test solution was dried, 60 first-instar Adoxophyes orana fasciata were released, and the cup was covered with a plastic cup upside-down which the bottom was cut off and a filter paper was put thereon. After 7 days, the number of living insects was counted, and a death rate was calculated according to the following equation: Death rate (%)=(Number of dead insects/Number of tested insects)×100

Aphis gossypii [2] = assay: Test Example 2: root immersion of cucumber seedling, then inoculation with Aphis gossypii; conditions: 168 h; 500 ppm active ingredient; cucumber root part immersed in 5 ml; 30 Aphis gossypii inoculated one day after treatment; examined after further seven days
Experimental: A root part of a cucumber seedling (the first true leaf stage) from which soil had been washed off was immersed in 5 ml of each of the diluted solutions, and one day after treatment, on the cucumber leaf surface was inoculated with 30 Aphis gossypii (whole stage). After further seven days, the number of insect of living Aphis gossypii parasitized on the leaves of the cucumber was examined, and a control value was calculated according to the following equation: Control value (%)={1−(Cb×Tai)/(Cai×Tb))×100 wherein symbols represent as follows: Cb: the number of insects in a non-treated section before treatment, Cai: the number of insects in a non-treated section in observation, Tb: the number of insects in a treated-section before treatment, Tai: the number of insects in a treated-section in observation; wherein the non-treated section represents a section where the test diluted solution prepared by diluting the formulation without the present compound in Formulation Example 5 with the same amount of water as in the treated-section was used.

Nilaparvata lugens [3] = assay: Test Example 4: spray on rice seedling, release of Nilaparvata lugens larvae; conditions: 144 h; 500 ppm active ingredient; rice seedling sprayed with 10 ml; third-fourth instar larvae of Nilaparvata lugens; after 6 days at 25° C.; read-out: Control value
Bemisia tabaci = assay: Test Example 6: spray on tomato seedling with Bemisia tabaci instar larvae; conditions: 168 h; 500 ppm active ingredient; 20 ml/cup sprayed on tomato seedling with hatched Bemisia tabaci instar larvae; after 7 days at 25° C.
Experimental: On the other hand, Bemisia tabaci adult was released on a tomato seedling (the third true leaf stage) planted in a polyethylene cup, and made to lay eggs for about 72 hours. The tomato seedling was kept in a greenhouse for 8 days. When instar larvae hatched from the eggs, the above test spray solution was sprayed in the amount of 20 ml/cup. The cup was kept in a greenhouse at 25° C. After the keeping for 7 days, the number of surviving instar larvae on the tomato leaves was examined, and a control value was calculated according to the following equation: Control value (%)={1−(Cb×Tai)/(Cai×Tb))×100 wherein symbols represent as follows: Cb: the number of insects in a non-treated section before treatment, Cai: the number of insects in a non-treated section in observation, Tb: the number of insects in a treated-section before treatment, Tai: the number of insects in a treated-section in observation; wherein the non-treated section represents a section where the test spray solution prepared by diluting the formulation without the present compound in Formulation Example 5 with the same amount of water as in the treated-section was sprayed.

Aphis gossypii [4] = assay: Test Example 1: spray on cucumber seedling inoculated with Aphis gossypii; conditions: topical, 144 h; 500 ppm active ingredient (Formulation Example 5 diluted with water); 20 ml sprayed on cucumber seedling with about 30 Aphis gossypii; six days after spraying
Experimental: On the other hand, on a cucumber seedling (the first true leaf stage) planted in a plastic cup was inoculated with about 30 Aphis gossypii, and leaving it for a day. Twenty ml of each of the above test spray solutions was sprayed on this seedling. Six days after spraying, the number of the surviving Aphis gossypii parasitized on the leaves of the cucumber was examined, and a control value was calculated according to the following equation: Control value (%)={1−(Cb×Tai)/(Cai×Tb))×100 wherein symbols represent as follows: Cb: the number of insects in a non-treated section before treatment, Cai: the number of insects in a non-treated section in observation, Tb: the number of insects in a treated-section before treatment, Tai: the number of insects in a treated-section in observation; wherein the non-treated section represents a section where the test spray solution prepared by diluting the formulation without the present compound in Formulation Example 5 with the same amount of water as in the treated-section was sprayed.

Nilaparvata lugens [5] = assay: Test Example 5: drench at foot of rice seedling, release of Nilaparvata lugens larvae; conditions: soil, 144 h; 500 ppm active ingredient; rice seedling drenched at its foot with 5 ml, kept 7 days; twenty third-fourth instar larvae of Nilaparvata lugens; examined after 6 days
Experimental: On the other hand, a rice seedling (2 weeks after sowing, the second leaf stage) planted in a plastic cup was drenched at its foot with 5 ml of each of the diluted solutions, and kept in a greenhouse of 25° C. for 7 days. Twenty third-fourth instar larvae of Nilaparvata lugens were released, and further kept in the greenhouse for 6 days, then the number of insect of living Nilaparvata lugens parasitized on the rice was examined, and a control value was calculated according to the following equation: Control value (%)={1−(Cb×Tai)/(Cai×Tb))×100 wherein symbols represent as follows: Cb: the number of insects in a non-treated section before treatment, Cai: the number of insects in a non-treated section in observation, Tb: the number of insects in a treated-section before treatment, Tai: the number of insects in a treated-section in observation; wherein the non-treated section represents a section where the test diluted solution prepared by diluting the formulation without the present compound in Formulation Example 5 with the same amount of water as in the treated-section was used.

Aphis gossypii [6] = assay: Test Example 3: drench at foot of cucumber seedling, then inoculation with Aphis gossypii; conditions: soil, 144 h, read-out: Control value
[7] = 500 ppm active ingredient, cucumber seedling drenched at its foot with 5 ml, kept 7 days at 25° C., 30 Aphis gossypii inoculated, examined after 6 days

Row | SMILES | pest or weed control at 500 ppm [1] | pest or weed control at 500 ppm (Nilaparvata lugens [3]) | pest or weed control at 500 ppm (Bemisia tabaci) | also measured
1 | C=CCS(=O)(=O)c1ccccc1-c1nc2cc(C(F)(F)F)cnc2n1C [Present Compound 11, 2-(2-allylsulfonylphenyl)-3-methyl-6-trifluoromethyl-3H-imidazo[4,5-b]pyridine] | ≥ 90% | – | – | –
2 | CC(C)[S+]([O-])c1ccccc1-c1nc2cc(C(F)(F)F)cnc2n1C (stereo not drawn) [Present Compound 13, 2-(2-isopropylsulfinylphenyl)-3-methyl-6-trifluoromethyl-3H-imidazo[4,5-b]pyridine] | ≥ 90% | – | – | pest or weed control at 500 ppm (Aphis gossypii [2]): ≥ 90%
3 | CC(C)S(=O)(=O)c1ccccc1-c1nc2cc(C(F)(F)F)cnc2n1C [Present Compound 14, 2-(2-isopropylsulfonylphenyl)-3-methyl-6-trifluoromethyl-3H-imidazo[4,5-b]pyridine] | ≥ 90% | ≥ 90% | – | pest or weed control at 500 ppm (Aphis gossypii [2]): ≥ 90%
4 | CCSc1ccccc1-c1nc2cc(C(F)(F)F)cnc2n1CC [Present Compound 21, 3-ethyl-2-(2-ethylsulfanylphenyl)-6-trifluoromethyl-3H-imidazo[4,5-b]pyridine] | – | ≥ 90% | ≥ 90% | –
5 | CCn1c(-c2ccccc2[S+]([O-])CC)nc2cc(C(F)(F)F)cnc21 (stereo not drawn) [Present Compound 22, 2-(2-ethylsulfinylphenyl)-3-ethyl-6-trifluoromethyl-3H-imidazo[4,5-b]pyridine] | ≥ 90% | – | ≥ 90% | –
6 | CCn1c(-c2ccccc2S(=O)(=O)CC)nc2cc(C(F)(F)F)cnc21 [Present Compound 23, 2-(2-ethylsulfonylphenyl)-3-ethyl-6-trifluoromethyl-3H-imidazo[4,5-b]pyridine] | ≥ 90% | – | – | –
7 | CC[S+]([O-])c1ccccc1-c1nc2cc(C(F)(F)F)cnc2n1C(C)C (stereo not drawn) [Present Compound 28, 2-(2-ethylsulfinylphenyl)-3-isopropyl-6-trifluoromethyl-3H-imidazo[4,5-b]pyridine] | ≥ 90% | – | – | –
8 | CCS(=O)(=O)c1ccccc1-c1nc2cc(C(F)(F)F)cnc2n1C(C)C [Present Compound 29, 2-(2-ethylsulfonylphenyl)-3-isopropyl-6-trifluoromethyl-3H-imidazo[4,5-b]pyridine] | ≥ 90% | – | – | –
9 | CC[S+]([O-])c1ccccc1-c1nc2cc(C(F)(F)F)cnc2n1C1CC1 (stereo not drawn) [Present Compound 31, 3-cyclopropyl-2-(2-ethylsulfinylphenyl)-6-trifluoromethyl-3H-imidazo[4,5-b]pyridine] | ≥ 90% | – | – | –
10 | CC[S+]([O-])c1ccccc1-c1nc2cc(C(F)(F)F)cc(Br)c2n1C (stereo not drawn) [Present Compound 75, 7-bromo-2-(2-ethylsulfinylphenyl)-1-methyl-5-trifluoromethyl-1H-benzimidazole] | – | – | ≥ 90% | pest or weed control at 500 ppm (Aphis gossypii [4]): ≥ 90%
11 | CCSc1c(Cl)cccc1-c1nc2cc(C(F)(F)F)cnc2n1C [Present Compound 88, 2-(3-chloro-2-ethylsulfanylphenyl)-3-methyl-6-trifluoromethyl-3H-imidazo[4,5-b]pyridine] | – | – | ≥ 90% | pest or weed control at 500 ppm (Aphis gossypii [2]): ≥ 90%
12 | CC[S+]([O-])c1c(Cl)cccc1-c1nc2cc(C(F)(F)F)cnc2n1C (stereo not drawn) [Present Compound 89, 2-(3-chloro-2-ethylsulfinylphenyl)-3-methyl-6-trifluoromethyl-3H-imidazo[4,5-b]pyridine] | – | – | – | pest or weed control at 500 ppm (Nilaparvata lugens [5]): ≥ 90%; pest or weed control at 500 ppm (Aphis gossypii [6]; [7]): ≥ 90%; pest or weed control at 500 ppm (Aphis gossypii [2]): ≥ 90%
13 | CCS(=O)(=O)c1c(Cl)cccc1-c1nc2cc(C(F)(F)F)cnc2n1C [Present Compound 90, 2-(3-chloro-2-ethylsulfonylphenyl)-3-methyl-6-trifluoromethyl-3H-imidazo[4,5-b]pyridine] | – | – | – | pest or weed control at 500 ppm (Nilaparvata lugens [5]): ≥ 90%; pest or weed control at 500 ppm (Aphis gossypii [6]; [7]): ≥ 90%
14 | CCS(=O)(=O)c1ccccc1-c1nc2cc(C(F)(F)C(F)(F)C(F)(F)F)cnc2n1C [Present Compound 130, 2-(2-ethylsulfonylphenyl)-6-heptafluoropropyl-3-methyl-3H-imidazo[4,5-b]pyridine] | – | – | – | pest or weed control at 500 ppm (Nilaparvata lugens [5]): ≥ 90%; pest or weed control at 500 ppm (Aphis gossypii [6]; Aphis gossypii): ≥ 90%
15 | CCSc1ccccc1-c1nc2cc(SC(F)(F)F)cnc2n1C [Present Compound 161, 2-(2-ethylsulfanyl-phenyl)-3-methyl-6-trifluoromethylsulfanyl-3H-imidazo[4,5-b]pyridine] | ≥ 90% | ≥ 90% | ≥ 90% | pest or weed control at 500 ppm (Aphis gossypii [4]): ≥ 90%
16 | Cn1c(-c2ccccc2S(=O)(=O)CC(F)(F)F)nc2cc(C(F)(F)F)cnc21 [compound 188] | – | ≥ 90% | ≥ 90% | pest or weed control at 500 ppm (Aphis gossypii [4]): ≥ 90%
17 | CCS(=O)(=O)c1cc(C(F)(F)F)ccc1-c1nc2cc(C(F)(F)F)cnc2s1 [compound 251, 2-[2-ethylsulfonyl-4-(trifluoromethyl)phenyl]-6-(trifluoromethyl)thiazolo[5,4-b]pyridine] | ≥ 90% | ≥ 90% | – | pest or weed control at 500 ppm (Nilaparvata lugens [5]): ≥ 90%
18 | CCS(=O)(=O)c1ccccc1-c1nc2cc(S(C)(=O)=O)cnc2n1C [compound 254, 2-(2-ethylsulfonylphenyl)-6-methylsulfonyl3-methyl-3H-imidazo[4,5-b]pyridine] | – | – | – | pest or weed control at 500 ppm (Aphis gossypii [6]; [7]): ≥ 90%; pest or weed control at 500 ppm (Aphis gossypii [2]): ≥ 90%
19 | CCS(=O)(=O)c1cc(C(F)(F)F)ccc1-c1nc2cc(S(=O)(=O)C(F)(F)F)cnc2n1C [compound 302, 2-(2-ethylsulfonyl-4-trifluoromethylphenyl)-3-methyl-6-trifluoromethylsulfonyl-3H-imidazo[4,5-b]pyridine] | – | – | – | pest or weed control at 500 ppm (Aphis gossypii [6]; [7]): ≥ 90%
20 | CCS(=O)(=O)c1cc(S(F)(F)(F)(F)F)ccc1-c1nc2cc(C(F)(F)F)cnc2n1C [compound 343, 2-(2-ethylsulfonyl-4-(pentafluorosulphur)phenyl)-3-methyl-6-trifluoromethyl-3H-imidazo[4,5-b]pyridine] | – | ≥ 90% | ≥ 90% | pest or weed control at 500 ppm (Aphis gossypii [4]): ≥ 90%; pest or weed control at 500 ppm (Nilaparvata lugens [5]): ≥ 90%
